Measured values from US20240139211A1, “METHODS AND COMPOSITIONS FOR TREATING AMYOTROPHIC LATERAL SCLEROSIS” (Amylyx Pharmaceuticals, Inc., priority 2022, published 2024).
Where two headings read alike, the source gives them in different places.

Key:
[1] = target: T1, BCRP (Homo sapiens, UniProt Q9UNQ0); assay: in vitro; details: Caco-2 cells, probe 3H-estrone-3-sulfate
T1 sequence (Q9UNQ0 1-655): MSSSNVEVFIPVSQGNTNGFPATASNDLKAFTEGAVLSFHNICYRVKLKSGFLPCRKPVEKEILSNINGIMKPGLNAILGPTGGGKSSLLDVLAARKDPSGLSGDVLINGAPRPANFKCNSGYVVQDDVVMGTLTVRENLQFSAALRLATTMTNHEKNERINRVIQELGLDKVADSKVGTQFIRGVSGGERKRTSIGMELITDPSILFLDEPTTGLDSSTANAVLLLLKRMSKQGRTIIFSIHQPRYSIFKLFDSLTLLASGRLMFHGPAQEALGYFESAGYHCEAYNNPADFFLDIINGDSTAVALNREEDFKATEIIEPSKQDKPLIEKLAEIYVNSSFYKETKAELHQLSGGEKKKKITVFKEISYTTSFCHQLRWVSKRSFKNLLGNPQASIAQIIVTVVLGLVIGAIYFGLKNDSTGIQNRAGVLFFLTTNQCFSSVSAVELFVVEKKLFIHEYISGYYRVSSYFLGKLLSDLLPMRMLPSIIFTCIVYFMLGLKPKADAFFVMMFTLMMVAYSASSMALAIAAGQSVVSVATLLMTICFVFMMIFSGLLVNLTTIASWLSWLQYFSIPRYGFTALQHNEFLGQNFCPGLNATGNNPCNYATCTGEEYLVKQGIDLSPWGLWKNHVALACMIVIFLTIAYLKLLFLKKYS

[2] = target: OATP1B3 (Homo sapiens, UniProt Q9NPD5); assay: in vitro
Chain of OATP1B3 (Q9NPD5 whole entry): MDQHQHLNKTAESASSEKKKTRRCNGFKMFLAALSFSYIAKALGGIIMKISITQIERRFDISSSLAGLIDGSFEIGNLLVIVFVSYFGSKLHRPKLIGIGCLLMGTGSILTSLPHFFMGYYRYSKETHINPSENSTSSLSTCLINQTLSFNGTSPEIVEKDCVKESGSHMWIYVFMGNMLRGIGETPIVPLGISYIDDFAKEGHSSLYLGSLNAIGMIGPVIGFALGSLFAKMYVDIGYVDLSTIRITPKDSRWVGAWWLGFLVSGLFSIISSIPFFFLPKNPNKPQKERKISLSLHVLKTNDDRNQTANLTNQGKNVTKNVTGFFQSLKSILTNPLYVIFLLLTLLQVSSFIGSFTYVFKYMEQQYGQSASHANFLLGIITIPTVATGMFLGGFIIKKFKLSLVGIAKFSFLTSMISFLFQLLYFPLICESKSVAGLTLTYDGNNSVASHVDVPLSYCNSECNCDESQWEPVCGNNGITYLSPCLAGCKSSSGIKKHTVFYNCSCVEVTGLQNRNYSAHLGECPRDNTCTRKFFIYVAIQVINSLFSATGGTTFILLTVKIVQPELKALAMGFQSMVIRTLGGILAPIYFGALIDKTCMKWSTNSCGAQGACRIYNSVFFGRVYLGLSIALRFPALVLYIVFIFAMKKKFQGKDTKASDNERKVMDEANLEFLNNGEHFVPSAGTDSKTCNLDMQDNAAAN

[3] = tested on: CYP2B6
[4] = tested on: CYP3A4 mRNA; assay: in vitro; details: human, hepatocyte cultures
[5] = in vivo; details: male, CD (Sprague-Dawley) IGS, rat, po, 840 mg/kg
[6] = male, CD (Sprague-Dawley) IGS, rat, in vivo
[7] = target: T2, OCT2 (Homo sapiens, UniProt O15244); assay: in vitro
T2 sequence (O15244 1-555): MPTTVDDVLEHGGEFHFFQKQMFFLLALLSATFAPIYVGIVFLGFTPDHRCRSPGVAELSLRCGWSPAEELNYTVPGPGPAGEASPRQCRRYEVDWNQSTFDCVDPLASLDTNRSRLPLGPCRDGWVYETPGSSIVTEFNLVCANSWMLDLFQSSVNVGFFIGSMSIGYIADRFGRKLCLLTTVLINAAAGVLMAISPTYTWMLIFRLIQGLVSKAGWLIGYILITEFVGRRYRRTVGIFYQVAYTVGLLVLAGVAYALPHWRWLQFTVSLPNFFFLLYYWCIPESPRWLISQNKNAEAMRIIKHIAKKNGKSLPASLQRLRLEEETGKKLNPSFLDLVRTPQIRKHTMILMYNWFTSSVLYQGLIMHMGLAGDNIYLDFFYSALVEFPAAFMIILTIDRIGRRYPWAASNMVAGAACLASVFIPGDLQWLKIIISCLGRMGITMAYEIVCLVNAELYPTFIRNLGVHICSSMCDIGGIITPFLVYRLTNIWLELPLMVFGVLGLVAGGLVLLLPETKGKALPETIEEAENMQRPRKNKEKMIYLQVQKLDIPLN

[8] = tested on: human plasma protein; assay: Human plasma protein binding; format: in vitro ADME
[9] = target: T3, OAT1 (Homo sapiens, UniProt Q4U2R8); assay: OAT1 inhibition, PAH uptake in transfected HEK cells
T3 sequence (Q4U2R8 1-563): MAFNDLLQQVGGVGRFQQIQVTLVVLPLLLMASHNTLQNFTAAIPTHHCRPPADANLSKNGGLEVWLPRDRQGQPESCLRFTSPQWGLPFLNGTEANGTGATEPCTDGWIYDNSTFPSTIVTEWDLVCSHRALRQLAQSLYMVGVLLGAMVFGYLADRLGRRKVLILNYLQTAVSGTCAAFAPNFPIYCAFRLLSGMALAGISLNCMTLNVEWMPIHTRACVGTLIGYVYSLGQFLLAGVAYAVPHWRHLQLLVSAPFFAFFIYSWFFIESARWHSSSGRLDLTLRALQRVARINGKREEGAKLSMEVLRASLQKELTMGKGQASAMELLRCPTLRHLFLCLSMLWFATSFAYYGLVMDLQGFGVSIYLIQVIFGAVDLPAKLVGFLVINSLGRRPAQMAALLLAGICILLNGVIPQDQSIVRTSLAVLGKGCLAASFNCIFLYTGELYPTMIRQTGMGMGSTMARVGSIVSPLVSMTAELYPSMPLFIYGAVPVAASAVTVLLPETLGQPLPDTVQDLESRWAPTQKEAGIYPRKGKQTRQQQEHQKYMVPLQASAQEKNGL

[10] = target: MATE2K (Homo sapiens, UniProt Q86VL8); assay: MATE2K inhibition, metformin uptake in transfected HEK cells; details: read-out: Estimated IC50 toward MATE2K; TUDCA and PB present simultaneously
Chain of MATE2K (Q86VL8 1-566 isoform Q86VL8-3): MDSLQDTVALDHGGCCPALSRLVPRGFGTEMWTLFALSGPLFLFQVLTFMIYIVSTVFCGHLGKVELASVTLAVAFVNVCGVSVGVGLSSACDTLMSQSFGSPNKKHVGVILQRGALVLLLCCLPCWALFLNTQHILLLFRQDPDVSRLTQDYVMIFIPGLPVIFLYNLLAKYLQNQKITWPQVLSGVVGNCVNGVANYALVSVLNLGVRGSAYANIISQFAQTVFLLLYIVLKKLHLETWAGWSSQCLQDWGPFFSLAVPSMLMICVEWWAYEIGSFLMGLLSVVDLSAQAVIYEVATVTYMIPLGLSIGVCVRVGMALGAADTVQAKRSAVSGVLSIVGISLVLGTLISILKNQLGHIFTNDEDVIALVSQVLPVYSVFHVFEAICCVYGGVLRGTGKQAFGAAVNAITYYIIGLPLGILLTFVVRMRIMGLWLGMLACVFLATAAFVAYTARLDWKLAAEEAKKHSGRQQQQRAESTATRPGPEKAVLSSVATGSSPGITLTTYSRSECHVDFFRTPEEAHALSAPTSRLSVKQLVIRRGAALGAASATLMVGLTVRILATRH

[11] = CYP reaction phenotyping, CYP control (negative control without CYP enzymes), % remaining; format: in vitro ADME; details: CYP Control 0.1 mg protein/mL, 5 μM TA, PB and TUDCA co-incubated
Protocol: The percent remaining of TA was calculated using the following equation: […]

Compound: C[C@H](CCC(=O)NCC(=O)O)[C@H]1CC[C@H]2[C@@H]3[C@@H](O)C[C@@H]4C[C@H](O)CC[C@]4(C)[C@H]3CC[C@]12C [Glycoursodeoxycholic acid, glycoursodeoxycholic acid]
- potency estimated from few doses [1]: > 100 µM
- potency estimated from few doses [2]: < 100 µM
- Maximum fold induction of CYP2B6 activity ([3]; Donor 1): 1.50 fold
- Maximum fold induction of CYP2B6 activity ([3]; Donor 2): 2.81 fold
- Maximum fold induction of CYP2B6 activity ([3]; Donor 3): 1.52 fold
- fold induction at 72 h [4]: 2.44

Compound: O=C(O)CCCc1ccccc1 [PB, sodium phenylbutyrate]
- Tmax [5]: 15 to 30 min
- Time through which plasma concentrations remained quantifiable [6]: 4 h

Compound: O=C(O)Cc1ccccc1 [Phenylacetic acid, phenylacetic acid]
- potency estimated from few doses [7]: < 7500 µM

Compound: tauroursodeoxycholic acid [TUDCA]
- Human Plasma Protein Binding (%) [8]: 98.5%
- IC50 for in vitro inhibition of human OAT1 ([9]; previous study, converted): 0.035 to 0.111 µg/mL
- IC50 ([9]; read-out: IC50 for in vitro inhibition of human OAT1, previous study (Example 6)): 0.074 to 0.222 µM
- IC50 [10]: > 810 µM
- % Remaining of TA ([11]; 0 min): 100%
- % Remaining of TA ([11]; 5 min): 99.4%
- % Remaining of TA ([11]; 10 min): 97.9%
- % Remaining of TA ([11]; 20 min): 95.9%
- % Remaining of TA ([11]; 30 min): 93.7%
- % Remaining of TA ([11]; 60 min): 101%
